Results on 68 sequences are retold here after the supplement of paper PMC11208160.

The data set in a line: recombinant UMI read abundance after kanamycin selection (control-corrected) (log10(CPM+1)); higher = more efficient recombination; extreme values may be limits of the assay; sequences stand for … in AGTGCAGAGAAAATCGGCCAGTTTTCTCTGCCTGCAGTCCGCATGCCGTGGGACCCCTTGGGTTCTAACCTGTTGCCTAGATTTATGCAGCGGACTGCCTTTCTCCCAAAGTGATAAACCGG…AGGTTGGTTTCACT; site = the 11-nt donor. The method in brief:
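Sequenced counts of recombinant UMIs were turned into CPM, averaged across replicates and scaled with control-derived factors. The reported figure is log10(CPM+1). Those UMIs, each 12 nt long, tagged donor and donor-binding-loop pairs on a plasmid with a promoterless kanamycin gene, screened as a pool in Escherichia coli with IPTG (0.07 mM) plus kanamycin or without selection.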
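Further: IS621 bridge recombinase in Escherichia coli cells against a fixed T5 target plasmid.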

In the case of “GGCCACCCATGGACCGGTTTTCCCGGTAATCCGTATTTGTA (site GGCCACCCTCA)”, the “recombinant UMI read abundance (log10)” value was found to be 0.014.
As to “GGCCACCCATGGACCGGTTTTCCCGGTAATCCGTATTTGTA (site GGCCACCCTGA)”, the “recombinant UMI read abundance (log10)” value was determined as 0.
With “GGCCACCCATGGACCGGTTTTCCCGGTAATCCGTATTTGTA (site GGCCACCCTTA)”, the “recombinant UMI read abundance (log10)” value is 0.081.
For the sequence “GGCCACCCATGGACCGGTTTTCCCGGTAATCCGTATTTGTG (site GGCCACCCTAA)”, the “recombinant UMI read abundance (log10)” value amounted to 0.00884.
As for “GGCCACCCATGGACCGGTTTTCCCGGTAATCCGTATTTGTG (site GGCCACCCTCA)”, the figure is 0.00742; as for “GGCCACCCATGGACCGGTTTTCCCGGTAATCCGTATTTGTG (site GGCCACCCTGA)”, 0.
For “GGCCACCCATGGACCGGTTTTCCCGGTAATCCGTATTTGTG (site GGCCACCCTTA)”, the “recombinant UMI read abundance (log10)” value amounted to 0.0265.
As for “GGCCACGCATGGACCGGTTTTCCCGGTAATCCGTATTTGTT (site GGCCACACTAA)”, the figure is 0.148; as for “GGCCACGCATGGACCGGTTTTCCCGGTAATCCGTATTTGTT (site GGCCACCCTAA)”, 0.023; as for “GGCCACGCATGGACCGGTTTTCCCGGTAATCCGTATTTGTT (site GGCCACGCTAA)”, 0.96.
Consider “GGCCACGCATGGACCGGTTTTCCCGGTAATCCGTATTTGTT (site GGCCACTCTAA)”, for which the “recombinant UMI read abundance (log10)” value came to 0.0156.
Regarding “GGCCATCCATGGACCGGTTTTCCCGGTAATCCGTATTTGAA (site GGCAATCCTTT)”, the “recombinant UMI read abundance (log10)” value amounted to 0.00447.
As for “GGCCATCCATGGACCGGTTTTCCCGGTAATCCGTATTTGAA (site GGCCATCCTTT)”, the figure is 0.00888; as for “GGCCATCCATGGACCGGTTTTCCCGGTAATCCGTATTTGAA (site GGCGATCCTTT)”, 0.00507; as for “GGCCATCCATGGACCGGTTTTCCCGGTAATCCGTATTTGAA (site GGCTATCCTTT)”, 0.0589.
Consider “GGCCCCCCATGGACCGGTTTTCCCGGTAATCCGTATTTGTT (site GGCCACCCTAA)”, for which the “recombinant UMI read abundance (log10)” value is 0.0272.
To “GGCCCCCCATGGACCGGTTTTCCCGGTAATCCGTATTTGTT (site GGCCCCCCTAA)” belongs 0.0352; to “GGCCCCCCATGGACCGGTTTTCCCGGTAATCCGTATTTGTT (site GGCCGCCCTAA)”, 0.0281.
For the sequence “GGCCCCCCATGGACCGGTTTTCCCGGTAATCCGTATTTGTT (site GGCCTCCCTAA)”, the “recombinant UMI read abundance (log10)” value is 0.0156.
On to “GGCCTAGCATGGACCGGTTTTCCCGGTAATCCGTATTTGTT (site AGCCTAGCTAA)”, for which the “recombinant UMI read abundance (log10)” value worked out at 0.
With “GGCCTAGCATGGACCGGTTTTCCCGGTAATCCGTATTTGTT (site CGCCTAGCTAA)”, the “recombinant UMI read abundance (log10)” value came to 0.0146.
To “GGCCTAGCATGGACCGGTTTTCCCGGTAATCCGTATTTGTT (site GGCCTAGCTAA)” belongs 0.00233.
As for “GGCCTAGCATGGACCGGTTTTCCCGGTAATCCGTATTTGTT (site TGCCTAGCTAA)”, the figure is 0.0108.
To “GGCGATACATGGACCGGTTTTCCCGGTAATCCGTATTTGCT (site GGCGATACTAG)” belongs 1.5; to “GGCGCTACATGGACCGGTTTTCCCGGTAATCCGTATTTGAT (site GGCGCTACTAT)”, 0.866.
As for “GGCGGCTCATGGACCGGTTTTCCCGGTAATCCGTATTTGTG (site GGCGGCTCTCA)”, the “recombinant UMI read abundance (log10)” value came to 1.23.
As for “GGCGTGGCATGGACCGGTTTTCCCGGTAATCCGTATTTGGT (site GGAGTGGCTAC)”, the figure is 0.00572.
As for “GGCGTGGCATGGACCGGTTTTCCCGGTAATCCGTATTTGGT (site GGCGTGGCTAC)”, the figure is 0.511.
For “GGCGTGGCATGGACCGGTTTTCCCGGTAATCCGTATTTGGT (site GGGGTGGCTAC)”, the “recombinant UMI read abundance (log10)” value is 0.00519.
As for “GGCGTGGCATGGACCGGTTTTCCCGGTAATCCGTATTTGGT (site GGTGTGGCTAC)”, the figure is 0.00854.
As for “GGCTAGACATGGACCGGTTTTCCCGGTAATCCGTATTTGCC (site GGATAGACTGG)”, the figure is 0; as for “GGCTAGACATGGACCGGTTTTCCCGGTAATCCGTATTTGCC (site GGCTAGACTGG)”, 0.563.
As to “GGCTAGACATGGACCGGTTTTCCCGGTAATCCGTATTTGCC (site GGGTAGACTGG)”, the “recombinant UMI read abundance (log10)” value came out at 0.
On to “GGCTAGACATGGACCGGTTTTCCCGGTAATCCGTATTTGCC (site GGTTAGACTGG)”, for which the “recombinant UMI read abundance (log10)” value is 0.
As for “GGCTAGACATGGACCGGTTTTCCCGGTAATCCGTATTTGTG (site GGCTAGACTCA)”, the figure is 0.659; as for “GGCTATCCATGGACCGGTTTTCCCGGTAATCCGTATTTGAA (site GGCAATCCTTT)”, 0.00767.
To “GGCTATCCATGGACCGGTTTTCCCGGTAATCCGTATTTGAA (site GGCCATCCTTT)” belongs 0.0272; to “GGCTATCCATGGACCGGTTTTCCCGGTAATCCGTATTTGAA (site GGCGATCCTTT)”, 0.0136.
“GGCTATCCATGGACCGGTTTTCCCGGTAATCCGTATTTGAA (site GGCTATCCTTT)”: the “recombinant UMI read abundance (log10)” value worked out at 0.133.
As for “GGCTCCTCATGGACCGGTTTTCCCGGTAATCCGTATTTGTA (site GGCTCCTCTTA)”, the figure is 1.84; as for “GGCTGGCCATGGACCGGTTTTCCCGGTAATCCGTATTTGAT (site GGCTGGCCTAT)”, 0.0261; as for “GGGAAAACATGGACCGGTTTTCCCGGTAATCCGTATTTGCT (site GAGAAAACTAG)”, 0.
“GGGAAAACATGGACCGGTTTTCCCGGTAATCCGTATTTGCT (site GCGAAAACTAG)”: the “recombinant UMI read abundance (log10)” value worked out at 0.0308.
Take “GGGAAAACATGGACCGGTTTTCCCGGTAATCCGTATTTGCT (site GGGAAAACTAG)”: the “recombinant UMI read abundance (log10)” value was determined as 0.
Consider “GGGAAAACATGGACCGGTTTTCCCGGTAATCCGTATTTGCT (site GTGAAAACTAG)”, for which the “recombinant UMI read abundance (log10)” value came out at 0.
Consider “GGGAAGACATGGACCGGTTTTCCCGGTAATCCGTATTTGCA (site AGGAAGACTTG)”, for which the “recombinant UMI read abundance (log10)” value turned out to be 0.813.
Regarding “GGGAAGACATGGACCGGTTTTCCCGGTAATCCGTATTTGCA (site CGGAAGACTTG)”, the “recombinant UMI read abundance (log10)” value worked out at 0.
Take “GGGAAGACATGGACCGGTTTTCCCGGTAATCCGTATTTGCA (site GGGAAGACTTG)”: the “recombinant UMI read abundance (log10)” value is 1.96.
Take “GGGAAGACATGGACCGGTTTTCCCGGTAATCCGTATTTGCA (site TGGAAGACTTG)”: the “recombinant UMI read abundance (log10)” value stood at 1.19.
To “GGGAAGACATGGACCGGTTTTCCCGGTAATCCGTATTTGCT (site AGGAAGACTTG)” belongs 0; to “GGGAAGACATGGACCGGTTTTCCCGGTAATCCGTATTTGCT (site GGGAAGACTAG)”, 1.69.
As for “GGGAATACATGGACCGGTTTTCCCGGTAATCCGTATTTGAG (site GGGAATACTCT)”, the figure is 1.35; as for “GGGAATCCATGGACCGGTTTTCCCGGTAATCCGTATTTGTC (site CGGAATCCTAA)”, 0.00512; as for “GGGAATCCATGGACCGGTTTTCCCGGTAATCCGTATTTGTC (site GGGAATCCTGA)”, 0.
For “GGGACAACATGGACCGGTTTTCCCGGTAATCCGTATTTGTG (site GGGACAACTCA)”, the “recombinant UMI read abundance (log10)” value was determined as 0.439.
To “GGGACATCATGGACCGGTTTTCCCGGTAATCCGTATTTGGA (site GGGACATCTTC)” belongs 1.52; to “GGGACGTCATGGACCGGTTTTCCCGGTAATCCGTATTTGTG (site GGGACGTCTCA)”, 2.05; to “GGGCAATCATGGACCGGTTTTCCCGGTAATCCGTATTTGTC (site GGGCAATCTGA)”, 2.8.
On to “GGGCAATCATGGACCGGTTTTCCCGGTAATCCGTATTTGTG (site GGGCAATCTCA)”, for which the “recombinant UMI read abundance (log10)” value was 1.92.
To “GGGCATGCATGGACCGGTTTTCCCGGTAATCCGTATTTGAG (site GGGCATGCTCT)” belongs 1.57; to “GGGCATGCATGGACCGGTTTTCCCGGTAATCCGTATTTGGT (site GAGCATGCTAC)”, 0.336.
As for “GGGCATGCATGGACCGGTTTTCCCGGTAATCCGTATTTGGT (site GCGCATGCTAC)”, the figure is 0.0126.
On to “GGGCATGCATGGACCGGTTTTCCCGGTAATCCGTATTTGGT (site GGGCATGCTAC)”, for which the “recombinant UMI read abundance (log10)” value came to 1.33.
To “GGGCATGCATGGACCGGTTTTCCCGGTAATCCGTATTTGGT (site GTGCATGCTAC)” belongs 0.161; to “GGGCCAACATGGACCGGTTTTCCCGGTAATCCGTATTTGTG (site GGGCCAACTCA)”, 0.
To “GGGCCACCATGGACCGGTTTTCCCGGTAATCCGTATTTGCA (site GGGACACCTTG)” belongs 0.
Turning to “GGGCCACCATGGACCGGTTTTCCCGGTAATCCGTATTTGCA (site GGGCCACCTTG)”, the “recombinant UMI read abundance (log10)” value is 0.
Consider “GGGCCACCATGGACCGGTTTTCCCGGTAATCCGTATTTGCA (site GGGGCACCTTG)”, for which the “recombinant UMI read abundance (log10)” value turned out to be 0.
